The target in one experiment is T1, Aromatase (Homo sapiens, UniProt P11511).
T1 sequence (P11511 whole entry): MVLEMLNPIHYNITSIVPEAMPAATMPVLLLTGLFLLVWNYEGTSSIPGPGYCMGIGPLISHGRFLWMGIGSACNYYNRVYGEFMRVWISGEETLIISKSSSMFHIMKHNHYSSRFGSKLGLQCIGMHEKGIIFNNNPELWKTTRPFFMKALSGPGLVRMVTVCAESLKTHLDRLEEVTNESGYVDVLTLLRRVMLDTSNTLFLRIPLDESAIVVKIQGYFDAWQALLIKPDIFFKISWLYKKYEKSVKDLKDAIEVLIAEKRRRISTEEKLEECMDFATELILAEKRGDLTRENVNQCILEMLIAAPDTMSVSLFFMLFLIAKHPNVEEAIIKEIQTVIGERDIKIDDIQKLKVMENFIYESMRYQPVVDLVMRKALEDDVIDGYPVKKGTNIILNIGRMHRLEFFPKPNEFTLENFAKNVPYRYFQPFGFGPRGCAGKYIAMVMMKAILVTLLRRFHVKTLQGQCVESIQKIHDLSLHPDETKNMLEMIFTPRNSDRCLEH
The experiment can be described thus: Binding affinity to human placental aromatase in MCF7 cells assessed as inhibition constant.

The test system of experiment [1] is MCF7. Description: Cytotoxicity against human MCF7 cells assessed as reduction in cell viability incubated for 24 hrs by MTT assay. The following applies: MCF7, 24 h.
The subject of experiment [2] is MCF7. Description: Antiproliferative activity against human MCF-7 cells assessed as reduction in cell viability incubated for 48 hrs by MTT assay. The settings on record: MCF7, 48 h.
Experiment [3] is described as follows: Downregulation of ERalpha expression in human MCF7 cells measured for 24 hrs by Western blot analysis. The following applies: MCF7, 24 h.
In a further experiment the test system is HEK-293T. Description: Cytotoxicity against HEK293T cells. The settings on record: Homo sapiens.
Experiment [4] has as its system MCF7. Description: Antiproliferative activity against human MCF7 cells.
For a further experiment, the system named is Ishikawa. Description: Antiproliferative activity against human Ishikawa cells assessed as reduction in cell viability incubated for 48 hrs by MTT assay.
Experiment [5] deals with MCF7. The experiment can be described thus: Cytotoxicity against human MCF7 cells.
For experiment [6], the system named is MCF7. Description: Antiproliferative activity against human MCF7 cells assessed as reduction in cell viability by MTT assay.
Another experiment relates to MDA-MB-231. The experiment can be described thus: Antiproliferative activity against human MDA-MB-231 cells assessed as reduction in cell viability by MTT assay.

Consider 20 compounds from ChEMBL document CHEMBL6114981, “Research progress of flavonoids targeting estrogen receptor in the treatment of breast cancer” (Bioorg Med Chem, 2025).

pIC50, pKi: −log10 of the molar value.

Regarding `C=C(C)[C@H]1Cc2c(ccc3c2O[C@@H]2COc4cc(OC)c(OC)cc4[C@@H]2C3=O)O1` [ROTENONE], on Aromatase, the negative logarithm of the Ki (pKi) is 6.52.
As for `COc1ccc(-c2cc(=O)c3c(O)cc(OC)cc3o2)cc1` [APIGENIN DIMETHYLETHER], the negative-log Ki (pKi) on Aromatase was 5.68.
On to `C[C@@H]1OC(Oc2cc(O)c3c(=O)c(O[C@H]4OC[C@@](O)(CO)[C@@H]4O)c(-c4ccc(O)cc4)oc3c2)[C@H](O)[C@H](O)[C@H]1O` (stereo partly specified), for which, in the experiment with MCF7 [1], the negative-log IC50 (pIC50) was 7.32.
Regarding `O=c1oc2cc(O)ccc2c(Oc2ccc(OCCN3CCCCC3)cc2)c1-c1ccc(F)cc1`, the pIC50 in the experiment on MCF7 [2] was 5.66.
`O=C1C[C@@H](c2ccccc2)Oc2cc(O)cc(O)c21` [PINOCEMBRIN]: the negative logarithm of the Ki (pKi) at Aromatase is 4.97.
`COc1cc(O)c2c(c1)OC(c1ccc(O)cc1)CC2=O` (single isomer, unassigned) [SAKURANETIN]: the negative-log Ki (pKi) at Aromatase was 5.92.
In turn, `O=C(O)/C=C/c1ccc(Cc2c(-c3ccccc3)c(=O)oc3cc(O)ccc23)cc1` gave a pIC50 in experiment [3] of 5.93.
In the case of `CC1=C(c2cc(F)cc(F)c2)[C@@H](c2ccc(/C=C/CN3CC(CF)C3)cc2)Oc2cc(O)ccc21`, the negative-log IC50 (pIC50) in the experiment with MCF7 [1] is 7.16.
For `O=c1c(O)c(-c2ccc(O)c(O)c2)oc2cc(O)cc(O)c12` [QUERCETIN], the negative-log IC50 (pIC50) in the experiment on HEK-293T is 5.92.
In the experiment with MCF7 [4], `CN1CCN(c2ccc(-c3cc(=O)c4ccccc4o3)cc2)CC1` showed a negative logarithm of the IC50 (pIC50) of 5.57.
The compound `Cc1cc(OC(F)(F)F)ccc1-c1c(Oc2ccc(/C=C/C(=O)O)cc2)c2ccccc2oc1=O` had a pIC50 in experiment [3] of 6.09.
For `COc1cc2c(cc1C(=O)c1ccc(OCCN3CCCCC3)cc1)C=C(c1ccccc1)C(C)(C)O2`, the pIC50 in the experiment with Ishikawa was 4.75.
Take `O=c1c(O)c(-c2ccc(O)c(O)c2)oc2cc(O)ccc12` [FISETIN]: in the experiment with MCF7 [5], the pIC50 was 5.07.
Compound `COc1ccc(C(=O)C2=C(Oc3ccc(/C=C/C(=O)O)cc3)c3ccc(O)cc3OC2)cc1` had a pIC50 in experiment [3] of 7.00.
As for `CC1=C(c2ccc(OC(=O)C(C)(C)C)cc2)[C@H](c2ccc(OCCN3CCCCC3)cc2)Oc2cc(OC(=O)C(C)(C)C)ccc21`, the pIC50 in the experiment on MCF7 [4] is 9.24.
Regarding `Cc1cc(OC(F)(F)F)ccc1-c1c(Oc2ccc(/C=C/C(=O)O)cc2)c2ccc(O)cc2oc1=O`, in [3], the negative-log IC50 (pIC50) was 8.52.
For `COc1ccc(-c2c(C(=O)c3ccc(OCCN4CCCCC4)cc3)c3ccc(OC)cc3oc2=O)cc1`, the results for the pIC50 in the experiment with MCF7 [6] and in the experiment on MDA-MB-231 were 5.24 and 4.90, respectively.
`CC1=C(c2ccc(O)cc2)[C@H](c2ccc(OCCN3CCCCC3)cc2)Oc2cc(O)ccc21` [ACOLBIFENE]: in the experiment with MCF7 [4], the negative logarithm of the IC50 (pIC50) was 9.49.
Regarding `CC1=C(c2cc(F)cc(F)c2)[C@H](c2ccc(/C=C/CN3CC(CF)C3)cc2)Oc2cc(O)ccc21` [BEXIRESTRANT], the pIC50 in the experiment on MCF7 [1] was 9.52.
Turning to `COc1cc(O)c2c(=O)cc(-c3ccc(OC)c(-c4c(O)cc(O)c5c(=O)cc(-c6ccc(O)cc6)oc45)c3)oc2c1` [GINKGETIN], the pIC50 in the experiment on MCF7 [5] is 5.00.
